This is an account of results in PubChem BioAssay AID256 (DTP/NCI, 2004).

The structures appear in SMILES notation. Inconclusive results and toxic doses are left out.

This assay deals with CD2F1 mice, L1210 leukemia ip, survival T/C. Put plainly: NCI In Vivo Anticancer Drug Screen. Data for tumor model L1210 Leukemia (intraperitoneal) in CD2F1 (CDF1) mice. To be noted: endpoint: mean survival time, higher = longer survival. An outline of the steps:
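Ratio T/C, where T is the treated-group value and C the vehicle-dosed control value, from mice implanted with a transplantable tumor.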

[1] abbreviates: dose: 12.5 mg/kg/injection, schedule: Q01DX009 (ip), vehicle: saline with Tween-80.
Setting [2] is: dose: 100.0 mg/kg/injection, schedule: Q04DX003 (ip), vehicle: saline with Tween-80.
The mark [3] stands for this setting: dose: 200.0 mg/kg/injection, schedule: Q04DX003 (ip), vehicle: saline with Tween-80.
The mark [4] stands for this setting: dose: 400.0 mg/kg/injection, schedule: Q04DX003 (ip), vehicle: saline with Tween-80.
Setting [5] is: dose: 100.0 mg/kg/injection, schedule: Q01DX009 (ip), vehicle: saline with Tween-80.
[6] abbreviates: dose: 200.0 mg/kg/injection, schedule: Q01DX009 (ip), vehicle: saline with Tween-80.
Where [7] appears, read: dose: 400.0 mg/kg/injection, schedule: Q01DX009 (ip), vehicle: saline with Tween-80.
Setting [8] is: dose: 25.0 mg/kg/injection, schedule: Q04DX002 (ip), vehicle: saline with Tween-80.
The mark [9] stands for this setting: dose: 50.0 mg/kg/injection, schedule: Q04DX002 (ip), vehicle: saline with Tween-80.
Setting [10] is: dose: 50.0 mg/kg/injection, schedule: Q01DX009 (ip), vehicle: saline with Tween-80.
Where [11] appears, read: dose: 100.0 mg/kg/injection, schedule: Q01DX001 (ip), vehicle: saline with Tween-80.
Where [12] appears, read: dose: 200.0 mg/kg/injection, schedule: Q01DX001 (ip), vehicle: saline with Tween-80.
[13] abbreviates: dose: 400.0 mg/kg/injection, schedule: Q01DX001 (ip), vehicle: saline with Tween-80.
Setting [14] is: dose: 100.0 mg/kg/injection, schedule: Q01DX001 (ip), vehicle: saline.

Take `CCO`: the T/C reads like this: (dose: 50.0 mg/kg/injection, schedule: Q03HX024 (ip), vehicle: saline) 100 % of control; (dose: 100.0 mg/kg/injection, schedule: Q03HX024 (ip), vehicle: saline) 102 % of control; (dose: 125.0 mg/kg/injection, schedule: Q01DX009 (ip), vehicle: saline) 103 % of control; (dose: 200.0 mg/kg/injection, schedule: Q03HX024 (ip), vehicle: saline) 97 % of control; (dose: 250.0 mg/kg/injection, schedule: Q01DX009 (ip), vehicle: saline) 100 % of control; (dose: 400.0 mg/kg/injection, schedule: Q03HX024 (ip), vehicle: saline) 102 % of control. Further, the T/C runs as follows: (dose: 500.0 mg/kg/injection, schedule: Q01DX001 (ip), vehicle: saline) 109 % of control; (dose: 500.0 mg/kg/injection, schedule: Q01DX009 (ip), vehicle: saline) 105 % of control; (dose: 1000.0 mg/kg/injection, schedule: Q01DX001 (ip), vehicle: saline) 108 % of control; (dose: 1000.0 mg/kg/injection, schedule: Q01DX009 (ip), vehicle: saline) 103 % of control; (dose: 2000.0 mg/kg/injection, schedule: Q01DX001 (ip), vehicle: saline) 103 % of control; (dose: 4000.0 mg/kg/injection, schedule: Q01DX001 (ip), vehicle: saline) 111 % of control.

As for `CCCCCCCCCCCCCCCC[n+]1ccc(C(N)=O)cc1`, the T/C is 105 % of control under setting [1]; 100 % of control (dose: 12.5 mg/kg/injection, schedule: Q04DX003 (ip), vehicle: saline with Tween-80); 98 % of control (dose: 25.0 mg/kg/injection, schedule: Q04DX003 (ip), vehicle: saline with Tween-80); 97 % of control (dose: 50.0 mg/kg/injection, schedule: Q04DX003 (ip), vehicle: saline with Tween-80).

In the case of `COC(=O)C1C2C(=O)NC(=O)C2C(c2ccc(-c3ccccc3)cc2)N1C1CCCCC1` (stereo not given), the T/C is, setting by setting: under setting [2], 105 % of control; under setting [3], 100 % of control; under setting [4], 103 % of control.

On to `CC(C)(C)c1cccc(OS(=O)(=O)c2cccc([N+](=O)[O-])c2)c1`, for which the T/C reads like this: under setting [5], 94 % of control; under setting [6], 94 % of control; under setting [7], 94 % of control.

`C[n+]1cccc(NC(=O)c2ccc(NC(=O)c3ccc(C(=O)Nc4ccc(NC(=N)N)cc4)cc3)cc2)c1`: the T/C was 173 % of control (dose: 1.3 mg/kg/injection, schedule: Q01DX009 (ip), vehicle: saline); 307 % of control (dose: 2.0 mg/kg/injection, schedule: Q01DX009 (ip), vehicle: saline); 259 % of control (dose: 3.0 mg/kg/injection, schedule: Q01DX009 (ip), vehicle: saline); 115 % of control (dose: 8.0 mg/kg/injection, schedule: Q01DX009 (ip), vehicle: saline); 112 % of control (dose: 12.0 mg/kg/injection, schedule: Q01DX009 (ip), vehicle: saline); 97 % of control (dose: 18.0 mg/kg/injection, schedule: Q01DX009 (ip), vehicle: saline).

`O=C(O)c1ccccc1C(=O)OCC(c1ccccc1)c1ccccc1`: the T/C was 97 % of control under setting [2] and 89 % of control under setting [3].

As to `OC(C/C=C/c1ccccc1)(c1ccccc1)c1ccccc1`, the T/C was 93 % of control under setting [5], 101 % of control under setting [6] and 96 % of control under setting [7].

On to `Nc1nc(NCCc2ccccc2)c2ncn(C3OC(CO)C(O)C3O)c2n1` (stereo not given), for which the T/C is, setting by setting: (dose: 12.5 mg/kg/injection, schedule: Q01DX005 (ip), vehicle: other) 102 % of control; (dose: 25.0 mg/kg/injection, schedule: Q01DX005 (ip), vehicle: other) 98 % of control; (dose: 50.0 mg/kg/injection, schedule: Q01DX005 (ip), vehicle: other) 104 % of control; (dose: 100.0 mg/kg/injection, schedule: Q01DX005 (ip), vehicle: other) 108 % of control.

On to `CCCCCCCCCCCCCC[N+](C)(C)CC#CC[N+](C)(C)CCCCCCCCCCCCCC`, for which the T/C runs as follows: under setting [8], 104 % of control; under setting [9], 89 % of control.

Turning to `O=C1CCCc2c1[nH]c1ccccc21`, the T/C by setting is: under setting [5], 94 % of control; under setting [6], 104 % of control; under setting [7], 102 % of control.

For the molecule `O.O.O=C(O)c1ccccc1C(=O)O.[NH-]C1CCCCC1[NH-].[Pt+2]`, the T/C was 109 % of control (dose: 3.13 mg/kg/injection, schedule: Q04DX003 (ip), vehicle: dextrose); 106 % of control (dose: 6.25 mg/kg/injection, schedule: Q04DX003 (ip), vehicle: dextrose); 106 % of control (dose: 25.0 mg/kg/injection, schedule: Q04DX003 (ip), vehicle: dextrose); 95 % of control (dose: 50.0 mg/kg/injection, schedule: Q04DX003 (ip), vehicle: dextrose).

Consider `COC(=O)C(c1ccccc1)C(SCc1ccccc1)c1ccccc1` (stereo not given), for which the T/C under setting [2] was 103 % of control, the T/C under setting [3] is 95 % of control and the T/C under setting [4] is 98 % of control.

Regarding `O=C(O)c1ccc(C(=O)O)c(C(=O)O)c1.[NH-]C1CCCCC1[NH-].[Pd+2]`, the T/C is 98 % of control (dose: 9.36 mg/kg/injection, schedule: Q04DX003 (ip), vehicle: sodium bicarbonate); 101 % of control (dose: 18.75 mg/kg/injection, schedule: Q04DX003 (ip), vehicle: sodium bicarbonate); 101 % of control (dose: 75.0 mg/kg/injection, schedule: Q04DX003 (ip), vehicle: sodium bicarbonate); 101 % of control (dose: 150.0 mg/kg/injection, schedule: Q04DX003 (ip), vehicle: sodium bicarbonate).

As to `COC1CCCC[CH]1[Hg][Br]` (stereo not given), the T/C (dose: 3.13 mg/kg/injection, schedule: Q01DX009 (ip), vehicle: saline with Tween-80) was 102 % of control.

With `O=C1C(c2ccccc2)=C(c2ccccc2)C(c2ccccc2)=C1c1ccccc1`, the T/C by setting is: under setting [10], 95 % of control; under setting [11], 97 % of control; under setting [5], 91 % of control; under setting [12], 87 % of control; under setting [6], 88 % of control; under setting [13], 91 % of control.

Take `COc1cc(C)n2nnnc2n1`: under setting [14], the T/C is 107 % of control.

As for `CCOc1nnc(-c2ccccc2)o1`, the T/C is 92 % of control (dose: 12.5 mg/kg/injection, schedule: Q01DX009 (ip), vehicle: other); 96 % of control (dose: 25.0 mg/kg/injection, schedule: Q01DX009 (ip), vehicle: other); 97 % of control (dose: 50.0 mg/kg/injection, schedule: Q01DX009 (ip), vehicle: other); 100 % of control (dose: 100.0 mg/kg/injection, schedule: Q01DX009 (ip), vehicle: other); 97 % of control (dose: 200.0 mg/kg/injection, schedule: Q01DX009 (ip), vehicle: other).

On to `CCN(CC)c1ccc(NC(=O)c2ccc(C(=O)Nc3ccc(N(CC)CC)cc3)cc2)cc1`, for which the T/C reads like this: under setting [14], 89 % of control; (dose: 200.0 mg/kg/injection, schedule: Q01DX001 (ip), vehicle: saline) 92 % of control; (dose: 400.0 mg/kg/injection, schedule: Q01DX001 (ip), vehicle: saline) 92 % of control.

Turning to `CN(C)CCCN1c2ccccc2C(C)(C)c2ccccc21`, the T/C runs as follows: under setting [1], 105 % of control; (dose: 25.0 mg/kg/injection, schedule: Q01DX009 (ip), vehicle: saline with Tween-80) 103 % of control; under setting [10], 97 % of control; under setting [2], 86 % of control; under setting [4], 114 % of control.

For the molecule `O=C(O)c1cc2c3ccccc3ncc2c2ccccc12`, the T/C reads like this: under setting [2], 94 % of control; under setting [3], 100 % of control; under setting [4], 101 % of control.

Turning to `Cc1ccc(S/C=C/C(=O)Nc2ccccc2)cc1`, the T/C runs as follows: under setting [8], 101 % of control; under setting [9], 94 % of control; under setting [11], 97 % of control; (dose: 100.0 mg/kg/injection, schedule: Q04DX002 (ip), vehicle: saline with Tween-80) 101 % of control; under setting [2], 87 % of control; under setting [12], 105 % of control. Also, under setting [13], the T/C was 94 % of control.

In the case of `CC(=O)OCC(COC(C)=O)(COC(C)=O)COC(C)=O`, the T/C under setting [5] was 97 % of control; the T/C under setting [2] was 100 % of control; the T/C under setting [6] is 97 % of control; the T/C under setting [3] was 96 % of control; the T/C under setting [7] is 98 % of control; the T/C under setting [4] is 93 % of control.
